Results from US11136409B2, “Compositions and methods for identification, assessment, prevention, and treatment of AML using USP10 biomarkers and modulators” (Dana-Farber Cancer Institute, Inc., priority 2016, dated 2021).
Read-outs that look alike come from different tables or passages of the source.

Legend:
K562 = test: Anti-proliferation, 24 hr treatment (CellTiter-Glo); type: cell-based, human; conditions: read-out: Anti-proliferation IC50
Description: Nomo-1, P31-FUJ, and NB4 were obtained from Dr. Gary Gilliland. MV4, 11 cells were obtained from Dr. Anthony Letai. Hel, K562, THP, U937, TF-1 and K052 cells were purchased from the American Type Culture Collection (ATCC) (Manassas, Va., USA). […] Cell lines were submitted for cell line authentication and were authenticated within 6 months of manuscript preparation through cell line short tandem repeat (STR) profiling (DDC Medical, Fairfield, Ohio and Molecular Diagnostics Laboratory, Dana Farber Cancer Institute). […] PBMCs were generously provided by Dr. Steven Treon and Dr. Guang Yang.
The CellTiter-Glo® assay (Promega, Madison, Wis.) was used for proliferation studies and carried out according to manufacturer instructions. Cell viability is reported as percentage of control (untreated) cells, and error bars represent the standard error of the mean for each data point.

USP7 [1] = molecular target: T1, USP7 (Homo sapiens, UniProt Q93009); test: USP7 IC50 of HBX19818 analogs (Table 9); type: biochemical; conditions: read-out: USP7 IC50 +/− SEM
T1 sequence (Q93009 whole entry): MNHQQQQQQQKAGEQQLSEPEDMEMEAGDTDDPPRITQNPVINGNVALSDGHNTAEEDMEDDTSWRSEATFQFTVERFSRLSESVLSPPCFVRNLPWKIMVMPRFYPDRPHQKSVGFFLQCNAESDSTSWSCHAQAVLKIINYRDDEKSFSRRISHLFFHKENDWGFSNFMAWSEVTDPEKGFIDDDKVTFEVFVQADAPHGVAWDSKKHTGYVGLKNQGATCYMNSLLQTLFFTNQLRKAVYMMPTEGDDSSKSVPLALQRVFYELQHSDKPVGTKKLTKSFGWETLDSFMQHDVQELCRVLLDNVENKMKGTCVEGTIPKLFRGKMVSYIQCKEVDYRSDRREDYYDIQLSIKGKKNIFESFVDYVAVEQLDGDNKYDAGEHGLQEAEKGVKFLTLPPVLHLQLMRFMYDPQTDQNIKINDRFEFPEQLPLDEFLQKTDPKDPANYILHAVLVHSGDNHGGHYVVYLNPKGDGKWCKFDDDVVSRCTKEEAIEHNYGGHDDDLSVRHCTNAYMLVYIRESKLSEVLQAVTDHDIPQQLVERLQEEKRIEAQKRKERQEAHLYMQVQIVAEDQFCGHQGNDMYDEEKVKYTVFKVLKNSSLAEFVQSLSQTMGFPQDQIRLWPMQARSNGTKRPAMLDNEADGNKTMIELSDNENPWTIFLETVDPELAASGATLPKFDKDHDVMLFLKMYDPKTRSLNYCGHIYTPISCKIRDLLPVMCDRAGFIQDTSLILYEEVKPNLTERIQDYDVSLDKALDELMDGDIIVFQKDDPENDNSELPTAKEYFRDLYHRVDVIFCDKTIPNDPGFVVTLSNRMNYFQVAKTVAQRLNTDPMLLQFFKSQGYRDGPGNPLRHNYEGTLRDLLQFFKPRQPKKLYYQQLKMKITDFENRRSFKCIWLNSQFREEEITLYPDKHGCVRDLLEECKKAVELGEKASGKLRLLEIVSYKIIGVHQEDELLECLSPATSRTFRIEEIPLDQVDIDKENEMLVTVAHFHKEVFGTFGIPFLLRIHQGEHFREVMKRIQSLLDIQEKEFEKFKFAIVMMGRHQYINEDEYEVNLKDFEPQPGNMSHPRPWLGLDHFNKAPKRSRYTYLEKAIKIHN

Ba/F3-FLT3-ITD cells = test: Immunoblot of FLT3 / Beclin-1 in Ba/F3-FLT3-ITD cells; type: cell-based, murine; conditions: for FLT3 protein levels: immunoblot, Ba/F3-FLT3-ITD cells
Description: (§1) The following antibodies were purchased from Cell Signaling Technology (Danvers, Mass.): total AKT (rabbit, #9272) and total p44/42 MAPK (Erk1/2) (3A7) (mouse, #9107) were used at 1:1000 dilution. Anti-GAPDH (D16H-11) XP (R) (rabbit mAb, #5174) was used at 1:1000 dilution. Beclin-1 (rabbit, #3738) was used at 1:1000. USP10 (D7A5) (rabbit, #8501) was used at 1:1000 dilution. P53 (rabbit, #9282) was used at 1:1000 dilution. β-tubulin (rabbit, #2146s) was used 1:1000.
(§2) FLT3/Flk-2 (C-20) (sc-479) and Ub (P4D1) (mouse, sc-8017) were purchased from Santa Cruz Biotechnology, Inc. (Dallas, Tex.) and used at 1:1000 dilution for immunoblotting. Anti-pTyr (mouse, clone 4G10) was purchased from Upstate Biotechnology (Lake Placid, N.Y.) and was used at 1:1000 dilution. Anti-HAUSP/USP7 antibody (rabbit, ab4080) and anti-ubiquitin antibody (rabbit, ab7780) were purchased from Abcam (Cambridge, Mass.) and used at 1:1000 dilution.
(§3) Protein lysate preparation, immunoblotting, and immunoprecipitation were carried out as previously described in Weisberg et al. (2002) Cancer Cell 1:433-443.

USP7 [2] = molecular target: T1, USP7; test: MALDI TOF DUB assay with diubiquitin substrate; type: biochemical; conditions: diubiquitin as substrate, same assay as USP10
Experimental: Thirty-one human DUBs were freshly diluted in the reaction buffer (40 mM Tris-HCl, pH 7.6, 5 mM DTT, 0.005% BSA) at different concentrations (see Table 10). […] 0.48 μl of di-ubiquitin topoisomers were added to the reaction mixture to initiate the reaction. The reaction was sealed and incubated for 30 min at room temperature and stopped by adding TFA to a final concentration of 2% (v/v).
(§4) Mass spectrometry data was acquired on an UltrafleXtreme MALDI-TOF mass spectrometer (Bruker Daltonics) with Compass 1.3 control and processing software. The sample carrier was taught before each analysis to optimize and centre laser shooting. […] Samples were analysed in automatic mode (AutoXecute, Bruker Daltonics). […] An amount of 3,500 shots were summed up in “random walk” and with “large” smartbeam laser focus. Spectra were automatically calibrated on the ^15N-Ub m/z and processed using smoothing (Savitzky-Golay algorithm) and baseline subtraction (‘TopHat’) for reproducible peak annotation on non-resolved isotope distributions: one cycle, 0.2 m/z for the width. For area calculation, the complete isotopic distribution was taken into account. An in-house made script was used to report—^15N and mono-ubiquitin areas; plotting of graphs, calculation of standard deviation and coefficient of variation (%) were processed in Microsoft Excel.

[3] = system: panel of 33 recombinant DUB enzymes; conditions: 10 μM compound; diubiquitin as substrate
Experimental: […] […] The enzymes were pre-incubated with the compounds for 30 min at room temperature at 10 μM final concentration. 0.48 μl of di-ubiquitin topoisomers were added to the reaction mixture to initiate the reaction. The reaction was sealed and incubated for 30 min at room temperature and stopped by adding TFA to a final concentration of 2% (v/v).
as §4

MOLM14 cells = test: Immunoblot of FLT3, Beclin-1, AKT, ERK1/ERK2 in MOLM14 cells; type: cell-based, human
Description: as §1, §2, §3

USP10 = USP10 target engagement in cells, labeling with HA-Ub-VS; type: cell-based; conditions: lysates from live treated cells
Experimental: Cells were harvested, washed with PBS, and lysed in 1% NP-40, 10% glycerol, 2% sodium orthovanadate, and HALT protease inhibitor cocktail (ThermoFisher). Lysate was diluted to 50 ug in 30 uL lysis buffer with 1% DTT and incubated on ice for 15 minutes. 0.25 ug HA-Ub-VS was added, and the sample was gently rocked at room temperature for 30 minutes, then denatured with LDS sample buffer.

[4] = system: mutant FLT3-expressing cells; test: Dynamic BH3 profiling (mitochondrial priming); type: cell-based, human; conditions: cytochrome c release in response to Bim peptide, 14 h; compared to wt or null FLT3-expressing cells
Experimental: To determine drug-induced changes in mitochondrial priming, dynamic BH3 profiling was performed as previously described in Montero et al. (2015) Cell 160:977-989 and Pan et al. (2014) Cancer Discov. 4:362-375. Briefly, 0.4×10^6 cells/well were exposed to drug treatment for 14 hours. At the end of incubation time, cells were washed in PBS, pelleted at 500×g for 5 min, and resuspended in MEB buffer. Fifteen μl of cell suspension was added to each well of 384 well plate containing 15 μl of MEB buffer containing 20 μg/mL digitonin and BH3 peptides at twice their final concentration, and the mixture was incubated for 60 min at 26° C. to allow mitochondrial depolarization. Peptide exposure was then terminated by adding 10 μl 4% formaldehyde in PBS for 15 min, followed by neutralization with N2 buffer (1.7M Tris, 1.25M glycine, pH 9.1) for 10 min. In order to determine cytochrome C levels, anti-cytochrome C clone 6H2.B4 conjugated to Alexa Fluor® 647 (BD Bioscience) was diluted 1:50 in 10× staining buffer (10% BSA, 2% Tween-20 and 0.02% sodium azide in PBS) and 10 μl of this antibody-containing buffer was added to each well for a final dilution of 1:400. Cells were stained overnight at 4° C. in dark and data were acquired on a BD LSRFortessa™ analyzer (BD Biosciences). Priming change (Δ) was calculated by comparing cytochrome C abundance in treated cells to that of DMSO-treated control cells.

MOLM13 and MOLM14 cells = test: p53 levels in AML cell lines (immunoblot); type: cell-based, human
Description: as §1, §3

[5] = system: FLT3-ITD-positive AML primagraft cells; test: FLT3 immunoblot in ex vivo-treated AML primagraft cells; type: cell-based, human; conditions: 21 hours of treatment; concentration of 20
Experimental: as §3

[6] = system: wt FLT3-expressing leukemia cell lines; test: FLT3 protein in wt FLT3-expressing leukemia cell lines (immunoblot); type: cell-based, human; conditions: approximately 23 hours of treatment
Experimental: as §3

[7] = 24 hr treatment, K562 (FLT3 wt or null)

SMILES | IC50 (K562; [7]) | IC50 (USP7 [1]) | FLT3 protein levels (Ba/F3-FLT3-ITD cells) | IC50 (K562; Homo sapiens, K562, 24 h) | IC50 (USP7 [2]) | Inhibition of DUBs other than USP10 [3] | Protein levels of Beclin-1 and FLT3 (Ba/F3-FLT3-ITD cells; 20 μM) | Protein levels of Beclin-1 and FLT3 (MOLM14 cells; 20 μM) | Expression of AKT and ERK1/ERK2 downstream of FLT3 (MOLM14 cells; approximately 23 hours of treatment) | Inhibitor concentration blocking USP10 labeling by HA-Ub-VS (USP10) | Mitochondrial priming for apoptosis [4] | p53 levels (MOLM13 and MOLM14 cells) | FLT3 levels via immunoblotting [5] | FLT3 protein [6]
O=C(NCCCN1CCN(Cc2ccccc2)CC1)c1ccc2nc3c(c(Cl)c2c1)CCCC3 [C598-0563] | 15.9 µM | 50 µM | induce loss of FLT3 at similar concentrations |  |  |  |  |  |  |  |  |  |  | 
CCCN(CCC)CCCNC(=O)c1ccc2c(Cl)c3c(nc2c1)CCCC3 [C598-0466] | 13.3 µM | 3.6 µM | induces FLT3 degradation at lower concentrations |  |  |  |  |  |  |  |  |  |  | 
CN(CCCNC(=O)c1ccc2nc3c(c(Cl)c2c1)CCCC3)Cc1ccccc1 [HBX19818, reference compound] |  |  | loss of FLT3 protein | 18.5 µM | 57 µM | ≤ 20% | strongly decreased | strongly decreased | unchanged | low micromolar range | increased priming | did not result in a decrease of p53 levels | no trace of FLT3 | little to no impact
CCN(CCCNC(=O)c1ccc2nc3c(c(Cl)c2c1)CCC3)Cc1ccccc1 [C673-0105] | 23.7 µM | > 100 µM |  |  |  |  |  |  |  |  | more strongly |  |  | 
